For data set [1] the following is noted: cited from earlier work.
Data set [2] can be described thus: Dynamic/gravimetric vapour sorption (DVS/GVS) hygroscopicity. It is filed as physicochemical. Conditions: for hygroscopicity (in words): DVS/GVS at 25° C. Here is the method:
Analyses were performed on an SMS DVS Advantage instrument. A few mg of the substance was added into an Al pan and exposed to stepwise RH changes according to 0-90-20% in steps of 10% RH, using open loop mode. The experiments were performed using a gas flow rate of 200 mL/min and at 25° C. The dm/dt criteria applied was 0.001 weight-%/min during a 5-minute window, with a maximum allowed time of 150 minutes and a minimum allowed time of 50 minutes for all steps except for the step at 0% RH, which had no criteria but was set to 6 h.
The hygroscopicity of Form A (as obtained from the synthesis described in Example 1), Form B (as obtained from a slurry in methanol/water 4:1) and Form C (as obtained from a slurry in ethanol) were investigated using GVS at 25° C. […] Form A can thus be classified as non-hygroscopic.
With a weight gain of about 3% at elevated humidities, it appears that a hydrate form is formed. Upon drying, Form B returned to the anhydrate; see FIGS. 12A and 12B, respectively.
Form C is thus classified as non-hygroscopic.

A short description of data set [3]: Thermogravimetric analysis (TGA) weight loss. The settings on record: heating up to 175° C. The class given is physicochemical. Here is the method:
Analyses were performed on a PerkinElmer TGA8000 instrument. A few mg of sample was gently charged into open Pt-pans and analysed by weight in a flow of dry nitrogen gas (40 mL/min), to ensure an inert atmosphere. The sample was scanned from 25 to 200° C. using a continuous scan speed of 10° C./min.
This confirms that Form A is an anhydrate.

The test system of a further data set is intragastric acidity. Conditions: cited from earlier work.
For data set [4] the following is noted: cited from earlier work. The source holds these as a separate data set.
Another data set can be described thus: clinical. Conditions: human, in vivo. The method, then: Linaprazan glurate is a prodrug of linaprazan, which was disclosed in WO 99/55706 and previously studied in Phase I and II studies. […] A clinical Phase I study has shown that administration of a single dose of linaprazan glurate can maintain the intragastric acidity above pH 4 for 24 hours. Linaprazan glurate is therefore tailored for patients with severe erosive gastroesophageal reflux disease (eGERD).
Whereas the plasma concentration of linaprazan glurate is only very low and difficult to determine, the plasma concentration of linaprazan may be determined instead. […] It is estimated that this requires a minimal plasma concentration (Cmin) of linaprazan of at least about 240 nmol/L after 22 hours. At such doses, a once daily oral administration of the formulation would be sufficient. In some embodiments, therefore, a single unit dose of a pharmaceutical composition of linaprazan glurate provides a Cmin of linaprazan in a human of at least about 240 nmol/L after 22 hours following oral administration of the pharmaceutical composition to said human. In other embodiments, a daily administration of two unit doses of a pharmaceutical composition of linaprazan glurate provides a Cmin of linaprazan in a human of at least about 240 nmol/L after 10 hours following oral administration of the last unit dose of the pharmaceutical composition to said human.

The subject of another data set is gastric acid. The settings on record: Phase I and II studies; cited from earlier work.
Where [5] appears, read: GVS at 25° C., humidity range of 0-90%.

This is an account of results in patent publication US20260217705A1, “POLYMORPHS OF THE HYDROBROMIDE SALT OF LINAPRAZAN GLURATE” (CINCLUS PHARMA HOLDING AB (PUBL), priority 2023, published 2026).

Entries after “also recorded” stand apart in the source; their conditions may differ. Like-named read-outs stand apart in the source and are kept apart here. A value given as a limit tells only on which side of the number the result lay.

As for `Cc1cccc(C)c1CNc1cc(C(=O)NCCOC(=O)CCCC(=O)O)cn2c(C)c(C)nc12` [Form A of the free base], the solubility in water result is listed as “slightly soluble” in data set [1] (pH 1) and “practically insoluble” in data set [1] (pH 6.8).

For the compound `Br.Cc1cccc(C)c1CNc1cc(C(=O)NCCOC(=O)CCCC(=O)O)cn2c(C)c(C)nc12` [Form A], the water uptake result in data set [2] (DVS, at 80% RH) was “about 0.15%”; in data set [2] (setting [5]) it was roughly 0.22%. Also, in data set [2], the “hygroscopicity (in words)” value is reported as “non-hygroscopic; also recorded: very low hygroscopicity”. Moreover, the weight loss in data set [3] was found to be 0.3%.

`Br.Cc1cccc(C)c1CNc1cc(C(=O)NCCOC(=O)CCCC(=O)O)cn2c(C)c(C)nc12` [Form B]: the “hygroscopicity (in words)” value in data set [2] is recorded as “significant water uptake with increasing humidity”. Also, in data set [2] (GVS at 25° C., elevated humidities), the weight gain result was “about 3%”. The compound also registered a weight loss in data set [3] of 0.3%.

As to `Br.Cc1cccc(C)c1CNc1cc(C(=O)NCCOC(=O)CCCC(=O)O)cn2c(C)c(C)nc12` [Form C], the water content result in data set [2] (DVS, at 90% RH) is reported as “not more than 0.05%”. The “hygroscopicity (in words)” value in data set [2] is recorded as “non-hygroscopic; also recorded: very low”. Moreover, the water uptake result in data set [2] (setting [5]) was “about 0.05%”. In data set [3], this compound displayed a weight loss of 0.2%.

For `Cc1cccc(C)c1CNc1cc(C(=O)NCCOC(=O)CCCC(=O)O)cn2c(C)c(C)nc12` [linaprazan glurate, 5-{2-[({8-[(2,6-dimethylbenzyl)amino]-2,3-dimethylimidazo[1,2-a]pyridine-6-yl}carbonyl)-amino]ethoxy}-5-oxopentanoic acid], in the data set on intragastric acidity (compared to linaprazan), the “control of gastric acid production” value is listed as “total control of the gastric acid production for a longer time”. For the same compound, in the data set with intragastric acidity (single dose, Phase I), the “time intragastric acidity maintained above pH 4” value is given as 24 hours. Moreover, the plasma concentration result in data set [4] (after absorption) is recorded as “only very low”. In data set [4] (compared to linaprazan), the “half-life in the body” value is listed as “longer half-life”. Besides, in data set [4] (in vivo), the “metabolism after absorption into the blood stream” value was “quickly metabolized into linaprazan”.

Take `Cc1cccc(C)c1CNc1cc(C(=O)NCCO)cn2c(C)c(C)nc12` [linaprazan]: the concentration at 22 h in “clinical” is no less than 240 nM. In addition, in the data set with gastric acid, the “duration of acid inhibition” value is reported as “too short duration”, the “elimination from the body” value is given as “quickly eliminated from the body”, the onset of action result is on record as “fast onset of action” and the tolerability entry is listed as “well tolerated”.
